Results published in patent US11931423B2, “Glucose oxidase-nanoparticle bioconjugates for cancer treatment” (UNIVERSITY OF PITTSBURGH—OF THE COMMONWEALTH SYSTEM OF …, priority 2017, dated 2024).

Test system: A431 cells with high EGFR expression
Test: A431 cell viability (CellTiter-Glo viability assay)
Format: cell-based
Conditions: Homo sapiens, A-431, 50 μM (30 μg/mL), after 24 h, PBS = 100% viability
Description: As a comparison, the A431 cells were also treated with SPION alone, a mixture of unconjugated SPION and GOx, and doxorubicin (a chemotherapy drug).
A431 cancer cells were purchased from ATCC. They were cultured in Dulbecco's Modified Eagle Medium (DMEM) containing 10% FBS, penicillin (100 U/mL), and streptomycin (100 μg/mL) at 37° C. in a humidified atmosphere containing 5% CO2 and 95% air.
50 μL SPION, the mixture of GOx and SPION without conjugation, mAb-GOx-SPION, doxorubicin, or PBS (as a control) were each added to a 96-well plate seeded with A431 cancer cells, followed by addition of 100 μL of DMEM containing 4 g/L glucose. After being incubated for various amounts of time, the cells were washed with PBS 3 times. 100 μL DMEM was added before cell viability was measured by using a CellTiter-Glo viability assay kit.
The cytotoxic effects of the system as functions of the concentrations of both cetuximab-GOx-SPION and glucose were investigated. 50 μL cetuximab-GOx-SPION (1.0 μg/mL) was added to 96-well plates seeded with A431 and HeLa cancer cells, followed by addition of 100 μL of DMEM that contains glucose at 20 g/L. After 1.5 h incubation, the cells were washed with PBS 3 times and then cultured in 200 μL of DMEM. After being incubated for another 12 h, cell viability was measured by using CellTiter-Glo viability assay kit. […]

Structure (SMILES): COc1cccc2c1C(=O)c1c(O)c3c(c(O)c1C2=O)C[C@@](O)(C(=O)CO)C[C@@H]3O[C@H]1C[C@H](N)[C@H](O)[C@H](C)O1 [doxorubicin]
- viability at 50 µM: ~3%
